Measurements: article PMC11943115, “GSTD1 Mediates the Tolerance to Abamectin and Beta-Cypermethrin in the Fall Armyworm Spodoptera frugiperda” (Insects, 2025)

Target: T1, SfGSTD1 (Spodoptera frugiperda, UniProt A0A9R0F5L2)
T1 construct: gene LOC118269876; not XP_035440580.2, another SfGSTD1 of the literature that clusters with SeGSTD3
T1 sequence (A0A9R0F5L2 1-244): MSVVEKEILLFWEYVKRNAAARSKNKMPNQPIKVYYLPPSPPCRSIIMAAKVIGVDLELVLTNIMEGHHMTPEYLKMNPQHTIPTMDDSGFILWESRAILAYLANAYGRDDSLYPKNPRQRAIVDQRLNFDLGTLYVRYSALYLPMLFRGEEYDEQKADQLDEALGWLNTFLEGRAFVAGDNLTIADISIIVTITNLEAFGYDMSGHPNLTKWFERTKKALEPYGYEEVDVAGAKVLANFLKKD
Assay: GSH conjugation, absorbance […] nm
Assay type: biochemical
Conditions: 4 mM GSH; CDNB 0.125 to 4 mM

**Q.** Which Km does the source give for `O=[N+]([O-])c1ccc(Cl)c([N+](=O)[O-])c1` [CDNB] here?
**A.** 421 ± 109 µM
